Test results reported in patent US9221875B2, “Amphiphilic peptides for treatment of keratitis” (Agency for Science, Technology and Research, priority 2013, dated 2015).
In brackets after ≈: the same amount, converted by molar mass. Like-named read-outs stand apart in the source and are kept apart here. Peptide text beside a SMILES is read from it.

Key:
[1] = system: 5 microorganisms tested (S. epidermidis, S. aureus, E. coli, P. aeruginosa, C. albicans); assay: Mean MIC over the panel and selectivity index (Example 1); format: cell-based
Procedure: Red blood cells suspension incubated with PBS was used as negative control.

[2] = system: F. solani; format: cell-based; conditions: 24 h
Procedure: (§1) The MICs of peptides were determined against the fungi C. albicans (American Type Culture Collection, ATCC) and F. solani (ATCC) by the broth microdilution method. […] F. solani, were cultured on sabouraud dextrose agar plates in incubator at 37° C. To collect conidia following incubation, conidia of F. solani species were harvested and standardized to 1×10^8 spores/ml before performing the experiments. Sabouraud dextrose broth (90 μL) was added to the wells of culture plates. […] The plates were incubated at 37° C. and examined macroscopically after 24 h for the growth of F. solani. Appropriate control wells without any treatment were included in the study. Peptide were considered to be active if the wells appeared clear without any visible growth of F. solani, and the results were expressed as MIC. The assay was performed in four replicates for each concentration.

[3] = system: C. albicans; assay: In vitro killing kinetics; format: cell-based, Candida albicans
Procedure: The killing kinetics test was performed to evaluate the antimicrobial activities of peptides against C. albicans. Yeast solution was re-suspended in YMB (Difco) to achieve from 10^5 to 10^6 CFU mL^−1. […] Each dilution (20 μL) was plated on agar plate, and incubated 2 days. Surviving colonies were counted after incubation. An untreated inoculum group was used as a negative control. Tests were conducted in triplicates, and the results were presented as killing efficiency (%).

[4] = Stability testing, autoclave and 6 weeks at room temperature, MALDI-TOF MS; format: physicochemical; conditions: 121° C. 15 min, 2 mg/mL, no protection from light
Procedure: Peptides 1 and 2 were dissolved in HPLC-grade water at 2 mg/mL, subjected to a standard steam sterilization autoclave cycle at 121° C. for 15 min, and allowed to stand at room temperature for a period of 6 weeks. The integrity of the peptides was determined by evaluating their molecular weights via MALDI-TOF MS before and after treatment.

[5] = system: C. albicans biofilm; assay: Biofilm biomass assay, crystal violet; format: cell-based, Candida albicans; conditions: 500 mg/L, 24 h
Procedure: The biomass of the biofilms was estimated by a crystal violet staining assay. Briefly, the formed biofilms were first treated with the peptide for 24 h as described above. After aspirating the culture medium, the biofilms were rinsed once with PBS, fixed with methanol for 15 min at room temperature and stained with 100 μL of 0.1% (weight by volume) crystal violet for 10 min. The excess crystal violet dye was removed by rinsing the wells with DI water five times. The dye that is associated with the biofilm was extracted using 100 μL of 33% glacial acetic acid per well, and […] aliquot from each well was transferred to a new 96-well plate for quantification of absorbance at a wavelength of 570 nm using a microplate reader (TECAN, Switzerland). The relative amount of biomass remaining after peptide treatment was expressed as a percentage of the control treated with broth containing 10 vol % of water. Data represented mean±standard deviations of 4 replicates for each concentration.

[6] = system: S. epidermidis; conditions: 18 h
[7] = system: S. aureus; conditions: 18 h
[8] = system: E. coli; conditions: 18 h
[9] = system: P. aeruginosa; conditions: 18 h
[10] = system: C. albicans; conditions: 42 h
[11] = system: C. albicans keratitis; assay: Contact lens-associated C. albicans keratitis mouse model
[12] = system: rabbit red blood cells; format: cell-based; conditions: red cells of rabbit, 1 h
[13] = system: C. albicans; format: cell-based, Candida albicans; conditions: 42 h
Procedure: as §1

[14] = system: S. epidermidis; conditions: 18 h; remark: listed apart in the source
[15] = system: S. aureus; conditions: 18 h; remark: listed apart in the source
[16] = system: E. coli; conditions: 18 h; remark: listed apart in the source
[17] = system: P. aeruginosa; conditions: 18 h; remark: listed apart in the source
[18] = system: C. albicans
[19] = topical eye drops, peptides 3000 mg/L, amphotericin B 1000 mg/L

## CC[C@H](C)[C@H](N)C(=O)N[C@@H](CCCCN)C(=O)N[C@H](C(=O)N[C@@H](CCCCN)C(=O)N[C@H](C(=O)N[C@@H](CCCCN)C(=O)N[C@H](C(=O)N[C@@H](CCCCN)C(N)=O)[C@@H](C)CC)[C@@H](C)CC)[C@@H](C)CC [(IKIK)2-NH2] (H-IKIKIKIK-NH2; N-terminus assumed)
[1]
  GM, geometric mean of MIC values for the 5 microorganisms tested: 38.3 µg/mL
[2]
  MIC F. solani: 31.3 µg/mL (≈ 31.9 µM)
[3]; at 2×MIC and 4×MIC
  time after which most fungi were killed: 1 h
[3]; at MIC
  time after which most fungi were killed: 4 h
[4]
  molecular weight after autoclaving and 6 weeks at room temperature in water: remained unchanged with no degradation products observed
[5]
  biomass of C. albicans biofilm: decreased significantly
[6]
  MIC S. epidermidis: 2.0 µg/mL (≈ 2.04 µM)
[7]
  MIC S. aureus: 125 µg/mL (≈ 127 µM)
[8]
  MIC E. coli: 31.3 µg/mL (≈ 31.9 µM)
[9]
  MIC P. aeruginosa: 31.3 µg/mL (≈ 31.9 µM)
[10]
  MIC C. albicans: 2.0 µg/mL (≈ 2.04 µM)
[11]; C. albicans counts in mice cornea, agar plating
  fungal cells eradicated from the biofilms compared to the untreated control group: ~90%
[11]; [19]
  depth of hyphal invasion into the cornea, PAS histology: reduced the maximal depth of hyphal invasion
  resolution of the keratitis infection (eye appearance): significant resolution of the keratitis infection
[11]; topical eye drops, peptides 3000 mg/L, amphotericin B 1000 mg/L, P<0.01
  clinical scores of mice corneas (slit lamp): significantly lower than that in the control group

## CC[C@H](C)[C@H](N)C(=O)N[C@H](C(=O)N[C@@H](CCCNC(=N)N)C(=O)N[C@@H](CCCCN)C(=O)N[C@H](C(=O)N[C@H](C(=O)N[C@@H](CCCNC(=N)N)C(=O)N[C@@H](CCCCN)C(N)=O)[C@@H](C)CC)[C@@H](C)CC)[C@@H](C)CC [Control-all L] (H-IIRKIIRK-NH2; N-terminus assumed)
[12]
  HC10, haemolysis concentration 10%: lowest peptide concentration that induces ≧10% haemolysis: >2000 mg/L
[13]
  MIC C. albicans: >500 µg/mL
[2]
  MIC F. solani: >500 µg/mL
[14]
  MIC S. epidermidis: >500 µg/mL
[15]
  MIC S. aureus: >500 µg/mL
[16]
  MIC E. coli: >500 µg/mL
[17]
  MIC P aeruginosa: >500 µg/mL
[18]
  MIC C. albicans: 500 µg/mL (≈ 482 µM)
